Test results from the NIST ThermoML archive (doi:10.1021/je2006743).

Details: 101.33 kPa, Liquid; for mass density: Vibrating tube method; for viscosity: Falling or rolling sphere viscometry

CCCCCC[n+]1cccc(C)c1.O=S(=O)([N-]S(=O)(=O)C(F)(F)F)C(F)(F)F
Details	mass density [kg/m3]	viscosity [mPa·s]
293.14 K	1356.1	–
293.15 K	–	105
303.15 K	–	64.2
303.17 K	1347.1	–
313.14 K	1338.4	–
313.15 K	–	41.2
323.13 K	1329.7	–
323.15 K	–	28.3
333.15 K	–	22.5
333.22 K	1321	–
343 K	1312.9	–
343.15 K	–	17.5

CCCC[N+]1(C)CCCC1.O=S(=O)([N-]S(=O)(=O)C(F)(F)F)C(F)(F)F
Details	mass density [kg/m3]	viscosity [mPa·s]
293.09 K	1398	–
293.15 K	–	101
302.89 K	1389.2	–
303.15 K	–	63.8
313.15 K	–	41.8
313.59 K	1379.8	–
323.15 K	–	28.9
323.38 K	1371.3	–
332.57 K	1363.1	–
333.15 K	–	23.5
342.84 K	1354.6	–
343.15 K	–	18.6

CCCC[N+](C)(C)C.O=S(=O)([N-]S(=O)(=O)C(F)(F)F)C(F)(F)F [butyltrimethylammonium bis(trifluoromethylsulfonyl)imide]
Details	mass density [kg/m3]	viscosity [mPa·s]
293.15 K	–	138
293.26 K	1396.5	–
303.15 K	–	82.3
303.22 K	1387.6	–
313.03 K	1379	–
313.15 K	–	52.2
323.13 K	1370	–
323.15 K	–	35.5
333.15 K	–	27.9
333.17 K	1361.3	–
343.15 K	–	21.5
343.18 K	1352.8	–

CC(=O)OCC[N+](C)(C)C.O=S(=O)([N-]S(=O)(=O)C(F)(F)F)C(F)(F)F
Details	mass density [kg/m3]	viscosity [mPa·s]
293.15 K	–	309
293.18 K	1486.9	–
303.15 K	–	162
303.19 K	1477.3	–
313.15 K	–	90.7
313.21 K	1468	–
323.15 K	–	56.8
323.16 K	1458.8	–
333.15 K	–	38.5
333.19 K	1449.7	–
343.15 K	–	27.5
343.21 K	1440.5	–

CCC[N+](C)(C)CCO.O=S(=O)([N-]S(=O)(=O)C(F)(F)F)C(F)(F)F
Details	mass density [kg/m3]	viscosity [mPa·s]
293.15 K	–	160
293.16 K	1453.6	–
303.15 K	–	92.7
303.16 K	1444.5	–
313.11 K	1435.7	–
313.15 K	–	58.1
323.14 K	1426.8	–
323.15 K	–	38.7
333.15 K	–	30.3
333.16 K	1418.1	–
343.14 K	1408.7	–
343.15 K	–	22.9

O=S(=O)([N-]S(=O)(=O)C(F)(F)F)C(F)(F)F.OCCC[n+]1ccccc1
Details	mass density [kg/m3]	viscosity [mPa·s]
293.15 K	1551	160
303.15 K	–	92.2
303.24 K	1541.7	–
313.14 K	1532.1	–
313.15 K	–	57.7
323.15 K	1522.9	38.2
333.15 K	–	29.4
333.16 K	1513.8	–
343.13 K	1504.7	–
343.15 K	–	22.8
